Here are results for three molecules from patent US12479847B2 (DANA-FARBER CANCER INSTITUTE, INC., priority 2019, dated 2025).

Holding throughout (test): KINOMEscan (ScanMAX) kinase profiling
Holding throughout (assay type): binding

Assay [1] has as its target T1, panel of 468 kinases (Homo sapiens, UniProt O43683).
T1 construct: purchased KINOMEscan (ScanMAX) service
The note with it: BUB1; 1 μM; read-out: % control.

For assay [2], the target named is T2, panel of 468 kinases (Homo sapiens, UniProt P07949, V804M).
T2 construct: purchased KINOMEscan (ScanMAX) service
The note with it: RET(V804M); 1 μM; read-out: % control.

The target in assay [3] is T3, panel of 468 kinases (Homo sapiens, UniProt P21127).
T3 construct: purchased KINOMEscan (ScanMAX) service
To be noted: CDC2L1; 1 μM; read-out: % control.

Assay [4] concerns the target T4, panel of 468 kinases (Homo sapiens, UniProt P45984).
T4 construct: purchased KINOMEscan (ScanMAX) service
To be noted: JNK2; 1 μM; read-out: % control.

The target of assay [5] is T5, panel of 468 kinases (Homo sapiens, UniProt Q13043).
T5 construct: purchased KINOMEscan (ScanMAX) service
T5 sequence (Q13043 1-487): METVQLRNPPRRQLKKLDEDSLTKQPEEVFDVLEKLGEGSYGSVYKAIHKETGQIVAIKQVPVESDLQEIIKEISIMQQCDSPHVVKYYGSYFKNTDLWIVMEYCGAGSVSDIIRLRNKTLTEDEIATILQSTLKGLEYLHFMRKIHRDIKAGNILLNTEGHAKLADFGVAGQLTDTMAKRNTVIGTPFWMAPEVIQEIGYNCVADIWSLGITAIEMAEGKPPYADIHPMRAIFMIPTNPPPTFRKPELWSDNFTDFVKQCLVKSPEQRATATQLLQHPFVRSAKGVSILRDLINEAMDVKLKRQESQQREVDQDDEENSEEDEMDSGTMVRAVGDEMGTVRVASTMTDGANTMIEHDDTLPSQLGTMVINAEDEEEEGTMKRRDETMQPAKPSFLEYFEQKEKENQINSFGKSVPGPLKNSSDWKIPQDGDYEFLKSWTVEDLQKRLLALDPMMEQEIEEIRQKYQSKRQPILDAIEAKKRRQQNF
The note with it: MST1; 1 μM; read-out: % control.

Assay [6] addresses T6, panel of 468 kinases (Homo sapiens, UniProt Q15746).
T6 construct: purchased KINOMEscan (ScanMAX) service
To be noted: MYLK; 1 μM; read-out: % control.

The target of assay [7] is T7, panel of 468 kinases (Homo sapiens, UniProt Q7L7X3).
T7 construct: purchased KINOMEscan (ScanMAX) service
T7 sequence (Q7L7X3 1-1001): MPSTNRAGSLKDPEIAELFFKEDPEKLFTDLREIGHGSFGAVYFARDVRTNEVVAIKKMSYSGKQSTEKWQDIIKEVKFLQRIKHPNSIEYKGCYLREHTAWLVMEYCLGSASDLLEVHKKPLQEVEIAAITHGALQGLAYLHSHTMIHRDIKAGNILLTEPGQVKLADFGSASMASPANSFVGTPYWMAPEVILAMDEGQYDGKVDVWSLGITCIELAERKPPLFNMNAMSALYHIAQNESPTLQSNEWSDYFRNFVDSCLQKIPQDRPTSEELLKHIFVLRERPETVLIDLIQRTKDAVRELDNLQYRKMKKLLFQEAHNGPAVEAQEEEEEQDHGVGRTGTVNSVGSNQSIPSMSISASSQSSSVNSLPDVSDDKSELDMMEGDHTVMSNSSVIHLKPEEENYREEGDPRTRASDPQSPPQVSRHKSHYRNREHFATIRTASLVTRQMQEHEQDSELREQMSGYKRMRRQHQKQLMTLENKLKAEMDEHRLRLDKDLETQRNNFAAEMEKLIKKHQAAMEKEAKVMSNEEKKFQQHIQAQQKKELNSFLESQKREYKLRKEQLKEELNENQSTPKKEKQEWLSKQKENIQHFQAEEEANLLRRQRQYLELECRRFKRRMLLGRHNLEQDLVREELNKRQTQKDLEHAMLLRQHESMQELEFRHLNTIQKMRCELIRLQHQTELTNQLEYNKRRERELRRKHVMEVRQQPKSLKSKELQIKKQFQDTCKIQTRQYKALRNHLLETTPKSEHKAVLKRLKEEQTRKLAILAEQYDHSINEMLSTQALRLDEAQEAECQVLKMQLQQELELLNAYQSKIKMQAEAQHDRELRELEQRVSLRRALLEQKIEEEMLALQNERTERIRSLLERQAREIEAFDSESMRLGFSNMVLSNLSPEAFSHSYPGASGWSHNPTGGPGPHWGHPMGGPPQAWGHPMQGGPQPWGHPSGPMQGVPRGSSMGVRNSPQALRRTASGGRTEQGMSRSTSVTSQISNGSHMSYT
To be noted: TAOK1; 1 μM; read-out: % control.

Assay [8] concerns the target T8, panel of 468 kinases (Homo sapiens, UniProt Q86V86).
T8 construct: purchased KINOMEscan (ScanMAX) service
The note with it: PIM3; 1 μM; read-out: % control.

Assay [9] deals with T9, panel of 468 kinases (Homo sapiens, UniProt Q9P286).
T9 construct: purchased KINOMEscan (ScanMAX) service
The note with it: PAK7; 1 μM; read-out: % control.

Assay [10] deals with T10, panel of 468 kinases (Homo sapiens, UniProt Q9Y2K2).
T10 construct: purchased KINOMEscan (ScanMAX) service
The note with it: QSK; 1 μM; read-out: % control.

For assay [11], the system named is panel of 468 kinases. The note with it: 1 μM.

T1 sequence (O43683 whole entry): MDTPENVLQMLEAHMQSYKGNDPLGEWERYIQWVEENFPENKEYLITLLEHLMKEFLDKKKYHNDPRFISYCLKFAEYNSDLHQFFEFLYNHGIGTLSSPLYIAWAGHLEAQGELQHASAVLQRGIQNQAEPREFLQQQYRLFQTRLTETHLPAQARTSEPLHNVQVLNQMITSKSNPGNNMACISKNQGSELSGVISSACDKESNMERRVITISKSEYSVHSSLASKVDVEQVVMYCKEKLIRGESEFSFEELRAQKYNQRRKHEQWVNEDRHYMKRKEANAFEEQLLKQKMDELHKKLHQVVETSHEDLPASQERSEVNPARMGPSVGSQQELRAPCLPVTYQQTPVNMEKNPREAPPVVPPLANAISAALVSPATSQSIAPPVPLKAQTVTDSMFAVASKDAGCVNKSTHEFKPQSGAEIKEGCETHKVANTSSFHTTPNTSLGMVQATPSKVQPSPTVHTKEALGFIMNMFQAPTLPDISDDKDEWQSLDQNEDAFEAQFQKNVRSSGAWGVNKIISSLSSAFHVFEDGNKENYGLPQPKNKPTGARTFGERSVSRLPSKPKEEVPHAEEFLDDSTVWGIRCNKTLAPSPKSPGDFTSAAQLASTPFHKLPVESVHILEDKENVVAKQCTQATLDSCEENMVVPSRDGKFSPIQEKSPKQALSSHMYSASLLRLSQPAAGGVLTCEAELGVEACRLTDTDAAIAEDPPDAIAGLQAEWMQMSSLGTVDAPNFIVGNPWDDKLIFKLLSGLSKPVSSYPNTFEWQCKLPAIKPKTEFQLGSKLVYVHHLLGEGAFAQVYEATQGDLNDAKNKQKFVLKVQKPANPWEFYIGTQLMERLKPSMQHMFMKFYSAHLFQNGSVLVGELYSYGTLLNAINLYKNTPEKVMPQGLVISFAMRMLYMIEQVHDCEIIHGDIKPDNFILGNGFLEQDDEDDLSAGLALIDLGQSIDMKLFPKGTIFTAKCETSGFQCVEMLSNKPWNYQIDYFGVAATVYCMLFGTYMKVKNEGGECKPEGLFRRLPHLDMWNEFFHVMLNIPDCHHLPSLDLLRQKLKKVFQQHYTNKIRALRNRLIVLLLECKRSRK
T6 sequence (Q15746 whole entry): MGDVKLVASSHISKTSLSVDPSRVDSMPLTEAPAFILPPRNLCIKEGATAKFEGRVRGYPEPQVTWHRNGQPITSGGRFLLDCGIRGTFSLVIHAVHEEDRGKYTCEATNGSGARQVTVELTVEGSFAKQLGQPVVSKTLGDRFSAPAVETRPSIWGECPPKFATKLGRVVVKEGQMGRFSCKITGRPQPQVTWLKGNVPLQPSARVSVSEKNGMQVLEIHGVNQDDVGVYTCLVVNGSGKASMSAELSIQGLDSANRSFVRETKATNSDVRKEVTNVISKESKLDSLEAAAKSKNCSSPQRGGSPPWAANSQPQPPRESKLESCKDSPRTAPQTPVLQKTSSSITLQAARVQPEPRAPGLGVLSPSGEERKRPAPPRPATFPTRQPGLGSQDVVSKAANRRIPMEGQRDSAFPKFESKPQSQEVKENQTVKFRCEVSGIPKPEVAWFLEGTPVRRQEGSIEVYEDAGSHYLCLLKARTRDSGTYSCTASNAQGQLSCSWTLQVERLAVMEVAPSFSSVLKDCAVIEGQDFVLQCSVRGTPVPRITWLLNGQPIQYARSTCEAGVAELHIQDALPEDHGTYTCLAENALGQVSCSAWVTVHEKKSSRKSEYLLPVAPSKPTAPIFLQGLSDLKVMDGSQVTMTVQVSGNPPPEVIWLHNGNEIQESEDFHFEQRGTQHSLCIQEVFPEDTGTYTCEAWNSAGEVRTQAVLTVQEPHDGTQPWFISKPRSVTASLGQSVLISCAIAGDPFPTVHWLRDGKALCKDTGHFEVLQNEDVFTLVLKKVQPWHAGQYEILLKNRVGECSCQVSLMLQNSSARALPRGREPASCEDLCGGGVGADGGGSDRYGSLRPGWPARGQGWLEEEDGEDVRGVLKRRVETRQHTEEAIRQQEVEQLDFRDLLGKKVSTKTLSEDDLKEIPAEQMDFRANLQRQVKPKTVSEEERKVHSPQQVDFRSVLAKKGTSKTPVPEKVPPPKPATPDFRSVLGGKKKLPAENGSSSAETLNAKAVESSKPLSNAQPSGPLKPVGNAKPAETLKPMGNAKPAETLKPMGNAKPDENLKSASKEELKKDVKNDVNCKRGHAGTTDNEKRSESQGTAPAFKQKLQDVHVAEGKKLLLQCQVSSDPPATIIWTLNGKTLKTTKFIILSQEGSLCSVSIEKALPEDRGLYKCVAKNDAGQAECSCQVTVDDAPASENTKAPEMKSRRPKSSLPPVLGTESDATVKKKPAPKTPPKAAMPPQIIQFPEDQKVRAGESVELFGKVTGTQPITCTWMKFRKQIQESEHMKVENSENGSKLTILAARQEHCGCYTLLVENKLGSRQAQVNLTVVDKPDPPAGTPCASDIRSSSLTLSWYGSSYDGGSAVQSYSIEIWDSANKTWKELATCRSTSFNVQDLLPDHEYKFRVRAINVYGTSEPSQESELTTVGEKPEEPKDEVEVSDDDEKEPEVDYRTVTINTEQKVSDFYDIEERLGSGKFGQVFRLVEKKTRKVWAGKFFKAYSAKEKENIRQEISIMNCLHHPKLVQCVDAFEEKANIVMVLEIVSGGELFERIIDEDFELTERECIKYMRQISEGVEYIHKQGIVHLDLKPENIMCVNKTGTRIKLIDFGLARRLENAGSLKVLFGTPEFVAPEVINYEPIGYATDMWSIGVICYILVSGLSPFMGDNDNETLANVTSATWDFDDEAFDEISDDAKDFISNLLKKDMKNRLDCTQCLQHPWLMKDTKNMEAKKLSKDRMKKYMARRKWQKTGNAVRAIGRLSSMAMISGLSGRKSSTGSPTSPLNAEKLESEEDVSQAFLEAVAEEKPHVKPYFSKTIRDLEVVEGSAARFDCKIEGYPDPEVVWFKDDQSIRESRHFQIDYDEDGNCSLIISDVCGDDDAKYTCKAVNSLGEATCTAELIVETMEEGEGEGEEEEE
T10 sequence (Q9Y2K2 whole entry): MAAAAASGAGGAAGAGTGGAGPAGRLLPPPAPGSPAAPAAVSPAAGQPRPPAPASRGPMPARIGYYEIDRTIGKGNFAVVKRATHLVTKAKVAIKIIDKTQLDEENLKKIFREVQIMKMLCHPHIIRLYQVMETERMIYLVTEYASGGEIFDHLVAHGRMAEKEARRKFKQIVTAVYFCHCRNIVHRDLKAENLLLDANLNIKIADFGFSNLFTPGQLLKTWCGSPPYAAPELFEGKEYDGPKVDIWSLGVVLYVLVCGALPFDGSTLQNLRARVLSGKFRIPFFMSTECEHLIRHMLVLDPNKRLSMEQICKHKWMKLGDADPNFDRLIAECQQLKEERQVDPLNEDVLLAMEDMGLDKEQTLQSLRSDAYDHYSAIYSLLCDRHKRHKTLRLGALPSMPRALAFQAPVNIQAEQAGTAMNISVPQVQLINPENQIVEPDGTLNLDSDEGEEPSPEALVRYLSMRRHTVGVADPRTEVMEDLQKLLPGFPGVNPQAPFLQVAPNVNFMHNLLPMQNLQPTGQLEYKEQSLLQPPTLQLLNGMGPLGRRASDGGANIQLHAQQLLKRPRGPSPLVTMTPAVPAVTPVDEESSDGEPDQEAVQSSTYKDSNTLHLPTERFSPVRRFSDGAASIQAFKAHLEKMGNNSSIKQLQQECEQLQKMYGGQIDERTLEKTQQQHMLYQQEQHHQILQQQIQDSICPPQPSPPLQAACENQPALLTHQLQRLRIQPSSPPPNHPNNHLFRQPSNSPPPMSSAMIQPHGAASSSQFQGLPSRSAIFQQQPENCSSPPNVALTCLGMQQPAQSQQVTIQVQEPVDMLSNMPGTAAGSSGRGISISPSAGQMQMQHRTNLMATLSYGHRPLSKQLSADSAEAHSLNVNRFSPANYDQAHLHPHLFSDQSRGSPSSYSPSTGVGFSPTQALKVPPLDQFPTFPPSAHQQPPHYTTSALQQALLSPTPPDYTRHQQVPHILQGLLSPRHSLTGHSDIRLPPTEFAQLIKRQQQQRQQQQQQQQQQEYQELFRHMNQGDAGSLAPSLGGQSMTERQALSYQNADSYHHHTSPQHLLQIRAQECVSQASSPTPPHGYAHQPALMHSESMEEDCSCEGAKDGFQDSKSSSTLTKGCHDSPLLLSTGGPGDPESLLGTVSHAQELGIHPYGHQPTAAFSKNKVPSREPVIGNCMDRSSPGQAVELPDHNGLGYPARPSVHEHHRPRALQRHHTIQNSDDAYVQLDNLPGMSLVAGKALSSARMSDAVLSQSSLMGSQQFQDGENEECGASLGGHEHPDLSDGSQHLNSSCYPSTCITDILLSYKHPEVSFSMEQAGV
T9 sequence (Q9P286 whole entry): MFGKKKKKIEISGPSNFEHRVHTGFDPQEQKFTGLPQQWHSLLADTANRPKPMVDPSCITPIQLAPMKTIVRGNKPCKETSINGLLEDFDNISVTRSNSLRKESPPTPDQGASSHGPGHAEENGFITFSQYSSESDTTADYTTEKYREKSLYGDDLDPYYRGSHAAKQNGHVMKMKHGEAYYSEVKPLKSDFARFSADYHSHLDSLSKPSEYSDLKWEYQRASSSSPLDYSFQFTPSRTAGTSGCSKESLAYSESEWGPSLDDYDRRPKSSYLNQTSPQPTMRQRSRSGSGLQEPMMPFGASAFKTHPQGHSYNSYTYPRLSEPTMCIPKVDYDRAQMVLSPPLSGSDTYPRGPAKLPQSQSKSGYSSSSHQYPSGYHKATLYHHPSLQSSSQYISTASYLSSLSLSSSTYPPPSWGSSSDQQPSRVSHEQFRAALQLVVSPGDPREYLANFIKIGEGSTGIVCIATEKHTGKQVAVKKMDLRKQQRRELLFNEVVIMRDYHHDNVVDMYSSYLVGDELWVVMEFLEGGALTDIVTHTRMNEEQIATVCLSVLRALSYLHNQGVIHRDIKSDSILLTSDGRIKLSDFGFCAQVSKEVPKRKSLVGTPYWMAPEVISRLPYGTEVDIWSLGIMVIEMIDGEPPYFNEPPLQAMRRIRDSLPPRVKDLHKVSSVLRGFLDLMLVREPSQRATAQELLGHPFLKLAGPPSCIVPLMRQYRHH

`CNc1nc(Nc2ccc(C(=O)N3CCC(N4CCOCC4)CC3)c3c2OCO3)nc2[nH]cc(Cl)c12` [Compound 75, (7-((5-chloro-4-(methylamino)-7H-pyrrolo[2,3-d]pyrimidin-2-yl)amino)benzo[d][1,3]dioxol-4-yl)(4-morpholinopiperidin-1-yl)methanone]: the remaining binding at 1 µM on panel of 468 kinases [1] is 49%; on panel of 468 kinases [2], 33%; on panel of 468 kinases [3], 100%; at panel of 468 kinases [4], 0%; on panel of 468 kinases [5], 100%; at panel of 468 kinases [6] it was 18%. Moreover, the remaining binding at 1 µM at panel of 468 kinases [7] turned out to be 81%; at panel of 468 kinases [8] it was 100%; on panel of 468 kinases [9], 97%; at panel of 468 kinases [10], 100%. The “% control” value with panel of 468 kinases [11] (EGFR(L747-E749del, A750P)) worked out at 100%; with panel of 468 kinases [11] (EGFR(L747-S752del, P753S)), 87%; with panel of 468 kinases [11] (EGFR(L747-T751del,Sins)), 100%; in the assay on panel of 468 kinases [11] (FLT3(ITD)), 33%; in the assay on panel of 468 kinases [11] (FLT3(ITD,D835V)), 2%; in the assay with panel of 468 kinases [11] (FLT3(ITD,F691L)), 2.8%.

For the molecule `CNc1nc(Nc2ccc(P3(=O)CCN(C4CCOCC4)CC3)cc2OC)nc2[nH]cc(Cl)c12` [Compound 77, 4-(4-((5-chloro-4-(methylamino)-7H-pyrrolo[2,3-d]pyrimidin-2-yl)amino)-3-methoxyphenyl)-1-(tetrahydro-2H-pyran-4-yl)-1,4-azaphosphinane 4-oxide], the remaining binding at 1 µM at panel of 468 kinases [1] is 61%; at panel of 468 kinases [2] it was 97%; on panel of 468 kinases [3], 100%; at panel of 468 kinases [4], 7.5%; on panel of 468 kinases [5], 100%; at panel of 468 kinases [6] it was 0.05%. In addition, the remaining binding at 1 µM on panel of 468 kinases [7] came to 82%; at panel of 468 kinases [8] it was 100%; at panel of 468 kinases [9] it was 100%; on panel of 468 kinases [10] it was 100%. Further, the “% control” value stood at 92% in the assay on panel of 468 kinases [11] (EGFR(L747-E749del, A750P)); 99% with panel of 468 kinases [11] (EGFR(L747-S752del, P753S)); 100% in the assay on panel of 468 kinases [11] (EGFR(L747-T751del,Sins)); 81% with panel of 468 kinases [11] (FLT3(ITD)); 19% in the assay with panel of 468 kinases [11] (FLT3(ITD,D835V)); 40% in the assay on panel of 468 kinases [11] (FLT3(ITD,F691L)).

As to `CNc1nc(Nc2ccc(S(=O)(=O)N3CCC(N4CCOCC4)CC3)cc2OC)nc2[nH]cc(Cl)c12` [Compound 12, 5-chloro-N2-(2-methoxy-4-((4-morpholinopiperidin-1-yl)sulfonyl)phenyl)-N4-methyl-7H-pyrrolo[2,3-d]pyrimidine-2,4-diamine], the remaining binding at 1 µM was 60% on panel of 468 kinases [1]; 96% at panel of 468 kinases [2]; 100% on panel of 468 kinases [3]; 26% on panel of 468 kinases [4]; 81% on panel of 468 kinases [5]; 8.8% on panel of 468 kinases [6]. Besides, the remaining binding at 1 µM at panel of 468 kinases [7] was determined as 81%; at panel of 468 kinases [8] it was 100%; on panel of 468 kinases [9], 100%; at panel of 468 kinases [10] it was 100%. The “% control” value in the assay on panel of 468 kinases [11] (EGFR(L747-E749del, A750P)) is listed as 100%; in the assay on panel of 468 kinases [11] (EGFR(L747-S752del, P753S)), 95%; in the assay with panel of 468 kinases [11] (EGFR(L747-T751del,Sins)), 100%; with panel of 468 kinases [11] (FLT3(ITD)), 100%; in the assay with panel of 468 kinases [11] (FLT3(ITD,D835V)) it was 61%; in the assay on panel of 468 kinases [11] (FLT3(ITD,F691L)) it was 66%.
